Data as given in patent publication US7956059B2, “Aliphatic amide and ester pyrazinoylguanidine sodium channel blockers” (Parion Sciences, Inc., priority 2004, dated 2011).
Where “and” joins values, the source holds several entries; their conditions need not be identical. Equal entries are not always repeated. Structures can show the parent of a compound that is named as a salt.

| SMILES | melting point |
| --- | --- |
| NC(=NC(=O)c1nc(Cl)c(N)nc1N)NCCCCCCCCCCCC(=O)Nc1ncc[nH]1 [ALB 27070, 12-[N′-(3,5-Diamino-6-chloropyrazine-2-carbonyl)guanidino]dodecanoic acid (1H-imidazol-2-yl)amide] | 102 to 104 °C |
| CN(C)CCCNC(=O)CCCCCCCCCCCNC(N)=NC(=O)c1nc(Cl)c(N)nc1N [ALB 26982, 12-[N′-(3,5-Diamino-6-chloropyrazine-2-carbonyl)guanidino]dodecanoic acid (3-dimethylaminopropyl)amide] | 82 to 84 °C |
| N=C(NCCCCCCCCCCCC(=O)N1CCNCC1)NC(=O)c1nc(Cl)c(N)nc1N (as salt: hydrochloride) [ALB 27069, N-(3,5-Diamino-6-chloropyrazine-2-carbonyl)-N′-(12-oxo-12-piperazin-1-yl-dodecyl)guanidine dihydrochloride] | 148 to 150 °C |

More lines, now with the values ahead:

| melting point | SMILES |
| --- | --- |
| 181 to 191 °C | N=C(N)N(CCCCCCCCCCC(=O)O)C(=O)c1nc(Cl)c(N)nc1N [ALB 26795, 11-[N-(3,5-Diamino-6-chloropyrazine-2-carbonyl)guanidino]undecanoic acid] |
| 194 to 196 °C and 192 to 194 °C | N=C(NCCCCCCCCCCCC(=O)O)NC(=O)c1nc(Cl)c(N)nc1N [ALB 26799, 12-[N′-(3,5-diamino-6-chloropyrazine-2-carbonyl)guanidino]-dodecanoic acid] |
| 52 to 56 °C | CN(C)CCCNC(=O)CCCCCCCCCCN(C(=N)N)C(=O)c1nc(Cl)c(N)nc1N (as salt: salt) [ALB 27160, 11-[N-(3,5-Diamino-6-chloropyrazine-2-carbonyl)guanidino]undecanoic acid (3-dimethylaminopropyl)amide] |
| 69 to 72 °C | N=C(N)N(CCCCCCCCCCC(N)=O)C(=O)c1nc(Cl)c(N)nc1N [ALB 27317, 11-[N-(3,5-Diamino-6-chloropyrazine-2-carbonyl)guanidino]undecanoic acid amide] |
